Data reported in US20200138827A1, “SMALL MOLECULE MODULATORS OF HUMAN STING” (Curadev Pharma Limited, priority 2017, published 2020).
Counter-ions that a name gives are not always drawn.

What follows are compounds tested against T1, WT/R232 STING protein (Homo sapiens, UniProt Q86WV6, H232R) (assay: Luciferase reporter assay in HEK293T-hSTING-Luciferase cells, WT/R232). Details: 20 hr stimulation, read-out: R232 Activity (EC50 range).
T1 construct: host or cells: HEK293T
Type: cell-based
From the text: • a) Stable STING expressing cells—Stable HEK293T STING-expressing cell lines were generated using plasmids purchased from Invivogen, Calif., USA, that contain STING cDNA cloned into the pUNO-1 vector under hEF1-HTLV promoter and containing the Blasticidin selection cassette. The plasmids hSTING(R232), hSTING(H232), hSTING(HAQ) were directly procured from Invivogen while hSTING (AQ) and hSTING (Q) were derived from hSTING(HAQ) and hSTING (R232) plasmids respectively by using a PCR based site directed mutagenesis method. These vectors were individually transfected into HEK293T cells using Lipofectamine (Invitrogen) and transfected cells were selected under Blasticidin selection. These transfected cells were further subjected to clonal selection using the limiting dilution method to obtain clonally pure populations of HEK cells transfected with each of the above mentioned human STING variants. Only those clones were selected in which ligand independent activation of STING was minimal. • b) Stable Luciferase reporter gene expressing cells—Stable HEK293T Luciferase reporter gene expressing cell lines were generated using pCDNA4 plasmids under an IRF-inducible promoter. This promoter is comprised of five tandem interferon-stimulated response elements (ISRE) fused to an ISG54 minimal promoter. This vector was transfected into HEK293T cells using Lipofectamine (Invitrogen) and transfected cells were selected under Zeocin selection. These transfected cells were further subjected to clonal selection using the limiting dilution method to obtain clonally pure populations of HEK cells transfected the Luciferase reporter construct. Only those clones were selected in which ligand independent induction of luciferase was minimal.
5×10^5 clonally selected HEK293T-hSTING-Luciferase cells were seeded in 384-well plates in growth medium and stimulated with novel compounds. After 20 hr of stimulation supernatant were removed and secretary reporter gene activity were measured using the Quanti-Luc detection system (Invivogen) on a Spectramax i3X luminometer.
All compounds were first tested in a primary screen using WT/R232 STING protein to obtain a ‘fold-induction’ over baseline levels of protein activity.

T1 sequence (Q86WV6 whole entry H232R): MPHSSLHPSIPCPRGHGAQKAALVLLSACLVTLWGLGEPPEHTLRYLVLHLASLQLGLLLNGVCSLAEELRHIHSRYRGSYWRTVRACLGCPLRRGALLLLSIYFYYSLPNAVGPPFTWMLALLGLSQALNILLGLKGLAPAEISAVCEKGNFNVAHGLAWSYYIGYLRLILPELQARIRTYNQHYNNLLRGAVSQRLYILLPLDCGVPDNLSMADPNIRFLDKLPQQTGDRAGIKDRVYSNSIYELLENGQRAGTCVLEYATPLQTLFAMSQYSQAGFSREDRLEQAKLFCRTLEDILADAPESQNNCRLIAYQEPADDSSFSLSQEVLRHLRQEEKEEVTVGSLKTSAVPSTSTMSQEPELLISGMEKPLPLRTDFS

Row | Structure (SMILES) | EC50 [µM]
1 | Cc1cc(CN2C(=O)CSc3ccc(C(=O)NCc4ccco4)cc32)no1 [Example 85, N-(furan-2-ylmethyl)-4-((5-methylisoxazol-3-yl)methyl)-3-oxo-3,4-dihydro-2H-benzo[b-1,4]thiazine-6-carboxamide] | > 10
2 | CN(C)C1Sc2ccc(C(=O)NCc3ccco3)cc2N(Cc2ccccc2F)C1=O (stereo not shown) [Example 135, 2-(dimethylamino)-4-(2-fluorobenzyl)-N-(furan-2-ylmethyl)-3-oxo-3,4-dihydro-2H-benzo[b-1,4]thiazine-6-carboxamide] | > 10
3 | O=C(NCc1ccco1)c1ccc2c(c1)N(CCc1cccc(C(F)(F)F)c1)C(=O)CS2 [Example 92, N-(furan-2-ylmethyl)-3-oxo-4-(3-(trifluoromethyl)phenethyl)-3,4-dihydro-2H-benzo[b-1,4]thiazine-6-carboxamide] | > 10
4 | O=C(NCc1cccc(Cl)c1Cl)c1ccc2c(c1)N(Cc1ccccc1)C(=O)CS2 [Example 55, 4-benzyl-N-(2,3-dichlorobenzyl)-3-oxo-3,4-dihydro-2H-benzo[b-1,4]thiazine-6-carboxamide] | > 10
5 | O=C(NCc1ccc(C(F)(F)F)cc1)c1ccc2c(c1)N(Cc1ccccc1)C(=O)CS2 [Example 72, 4-benzyl-3-oxo-N-(4-(trifluoromethyl)benzyl)-3,4-dihydro-2H-benzo[b-1,4]thiazine-6-carboxamide] | > 10
6 | CC(c1ccccc1)N1C(=O)CSc2ccc(C(=O)NCc3ccco3)cc21 (stereo not shown) [Example 29, N-(furan-2-ylmethyl)-3-oxo-4-(1-phenylethyl)-3,4-dihydro-2H-benzo[b-1,4]thiazine-6-carboxamide] | > 10
7 | O=C(NCc1ccco1)c1ccc2c(c1)N(CC(=O)N1CCc3ccccc31)C(=O)CS2 [Example 3, N-(furan-2-ylmethyl)-4-(2-(indolin-1-yl)-2-oxoethyl)-3-oxo-3,4-dihyrdo-2H-benzo[b-1,4]thiazine-6-carboxamide] | > 10
8 | NC(=O)c1cccc(CN2C(=O)CSc3ccc(C(=O)NCc4ccco4)cc32)c1 [Example 86, 4-(3-carbamoylbenzyl)-N-(furan-2-ylmethyl)-3-oxo-3,4-dihydro-2H-benzo[b-1,4]thiazine-6-carboxamide] | > 10
9 | CC(NC(=O)c1ccc2c(c1)N(Cc1ccccc1)C(=O)CS2)c1ccco1 (stereo not shown) [Example 68, 4-benzyl-N-(1-(furan-2-yl)ethyl)-3-oxo-3,4-dihydro-2H-benzo[b-1,4]thiazine-6-carboxamide] | > 10
10 | CC(NC(=O)c1ccc2c(c1)N(Cc1ccccc1F)C(=O)CS2)C12C[C@H]3C[C@@H](C1)C[C@@H](C2)C3 (stereo partly shown) [Example 23, N-(1-((3r,5r,7r)-adamantan-1-yl)ethyl)-4-(2-fluorobenzyl)-3-oxo-3,4-dihydro-2H-benzo[b-1,4]thiazine-6-carboxamide] | > 10
11 | Cc1ccc(CNC(=O)c2cnc3c(c2)N(Cc2cc(F)cc(F)c2)C(=O)C(C)(CO)S3)o1 (stereo not shown) [Example 209, 1-(3,5-difluorobenzyl)-3-(hydroxymethyl)-3-methyl-N-((5-methylfuran-2-yl)methyl)-2-oxo-2,3-dihydro-1H-pyrido [2,3-b] [1,4]thiazine-7-carboxamide] | > 10
12 | CC(C)(NC(=O)c1ccc2c(c1)N(Cc1ccccc1)C(=O)CS2)c1ccccc1F [Example 78, 4-benzyl-N-(2-(2-fluorophenyl)propan-2-yl)-3-oxo-3,4-dihydro-2H-benzo[b-1,4]thiazine-6-carboxamide] | > 10
13 | NCc1cc(C(=O)NCc2c(F)cc(F)cc2F)cc2c1SCC(=O)N2Cc1ccc(F)cc1 [Example 224, 8-(aminomethyl)-4-(4-fluorobenzyl)-3-oxo-N-(2,4,6-trifluorobenzyl)-3,4-dihydro-2H-benzo[b][1,4] thiazine-6-carboxamide hydrochloride] | > 10
14 | O=C(NCc1c(F)cc(F)cc1F)c1ccc2c(c1)N(C(=O)c1ccncc1)CCS2 [Example 260, 4-isonicotinoyl-N-(2,4,6-trifluorobenzyl)-3,4-dihydro-2H-benzo[b][1,4]thiazine-6-carboxamide] | > 10
15 | O=C(NCc1c(F)cc(F)cc1F)c1ccc2c(c1)N(C(=O)c1c(F)cccc1Cl)CCO2 [Example 264, 4-(2-chloro-6-fluorobenzoyl)-N-(2,4,6-trifluorobenzyl)-3,4-dihydro-2H-benzo[b-1,4]oxazine-6-carboxamide] | > 10
16 | O=C(NCc1cc2cccnc2o1)c1ccc2c(c1)N(Cc1cc(F)cc(F)c1)C(=O)CC2 [Example 274, 1-(3,5-difluorobenzyl)-N-(furo[2,3-b]pyridin-2-ylmethyl)-2-oxo-1,2,3,4-tetrahydroquinoline-7-carboxamide] | > 10

Further lines, results first:

Row | EC50 [µM] | Structure (SMILES)
17 | > 10 | CC1(CO)Sc2ncc(C(=O)NCc3cc4ccccc4o3)cc2N(Cc2cc(F)cc(F)c2)C1=O (stereo not shown) [Example 210, N-(benzofuran-2-ylmethyl)-1-(3,5-difluorobenzyl)-3-(hydroxymethyl)-3-methyl-2-oxo-2,3-dihydro-1H-pyrido[2,3-b] [1,4] thiazine-7-carboxamide]
18 | > 10 | N#CCC(CNC(=O)c1ccc2c(c1)N(Cc1c(F)cccc1Cl)C(=O)CS2)c1ccccc1 (stereo not shown) [Example 41, 4-(2-chloro-6-fluorobenzyl)-N-(3-cyano-2-phenylpropyl)-3-oxo-3,4-dihydro-2H-benzo[b-1,4]thiazine-6-carboxamide]
19 | > 10 | O=C(NCc1ccco1)c1ccc2c(c1)N(Cc1ccc(Cl)cc1)CCS2 [Example 250, 4-(4-Chlorobenzyl)-N-(furan-2-ylmethyl)-3,4-dihydro-2H-benzo[b-1,4]thiazine-6-carboxamide]
20 | > 10 | O=C(O)CC1Sc2ccc(C(=O)NCc3ccco3)cc2N(Cc2ccccc2F)C1=O (stereo not shown) [Example 175, 2-(4-(2-fluorobenzyl)-6-((furan-2-ylmethyl)carbamoyl)-3-oxo-3,4-dihydro-2H-benzo[b][1,4]thiazin-2-yl)acetic acid]
21 | > 10 | Cc1noc(CN2C(=O)CSc3ccc(C(=O)NCc4ccco4)cc32)n1 [Example 84, N-(furan-2-ylmethyl)-4-((3-methyl-1,2,4-oxadiazol-5-yl)methyl)-3-oxo-3,4-dihydro-2H-benzo[b-1,4]thiazine-6-carboxamide]
22 | > 10 | Cc1noc(CNC(=O)c2cnc3c(c2)N(Cc2cc(F)cc(F)c2)C(=O)C(C)S3)n1 (stereo not shown) [Example 212, 1-(3,5-difluorobenzyl)-3-methyl-N-((3-methyl-1,2,4-oxadiazol-5-yl)methyl)-2-oxo-2,3-dihydro-1H-pyrido[2,3-b] [1,4] thiazine-7-carboxamide]
23 | > 10 | O=C(NCc1ccco1)c1ccc2c(c1)N(Cc1ccccc1C(F)(F)F)C(=O)CS2 [Example 30, N-(furan-2-ylmethyl)-3-oxo-4-(2-(trifluoro-methyl)benzyl)-3,4-dihydro-2H-benzo[b-1,4]thiazine-6-carboxamide]
24 | > 10 | O=C(NCc1ccco1)c1ccc2c(c1)N(Cc1c(F)cccc1Cl)C(=O)CC2 [Example 268, 1-(2-chloro-6-fluorobenzyl)-N-(furan-2-ylmethyl)-2-oxo-1,2,3,4-tetrahydroquinoline-7-carboxamide]
25 | > 10 | CC(NC(=O)c1ccc2c(c1)N(Cc1ccc(Cl)cc1)C(=O)CS2)c1ccccc1 (stereo not shown) [Example 125, 4-(4-chlorobenzyl)-3-oxo-N-(1-phenylethyl)-3,4-dihydro-2H-benzo[b-1,4]thiazine-6-carboxamide]
26 | > 10 | CC1(C)C2CC(CNC(=O)c3ccc4c(c3)N(Cc3ccccc3F)C(=O)CS4)CC1C2 (stereo not shown) [Example 22, N-((6,6-dimethyl-bicyclo[3.1.1]heptan-3-yl)methyl)-4-(2-fluorobenzyl)-3-oxo-3,4-dihydro-2H-benzo[b-1,4]thiazine 6-carboxamide]
27 | > 10 | O=C(NCc1ccco1)c1ccc2c(c1)N(Cc1nc3ccccc3o1)C(=O)CS2 [Example 7]
28 | 1 to 10 | Cc1ccc(CNC(=O)c2ccc3c(c2)N(Cc2ccccc2)C(=O)CS3)o1 [Example 62, 4-benzyl-N-((5-methylfuran-2-yl)methyl)-3-oxo-3,4-dihydro-2H-benzo[b-1,4]thiazine-6-carboxamide]
29 | 1 to 10 | C[C@H]1Oc2ncc(C(=O)NCc3c(F)cc(F)cc3F)cc2N(Cc2cc(F)cc(F)c2)C1=O [Example 238, (R)-1-(3,5-difluorobenzyl)-3-methyl-2-oxo-N-(2,4,6-trifluorobenzyl)-2,3-dihydro-1H-pyrido[2,3-b-1,4]oxazine-7-carboxamide]
30 | 1 to 10 | O=C(NCc1ccco1)c1ccc2c(c1)N(Cc1cc(F)ccc1Cl)C(=O)CS2 [Example 99, 4-(2-chloro-5-fluorobenzyl)-N-(furan-2-ylmethyl)-3-oxo-3,4-dihydro-2H-benzo[b-1,4]thiazine-6-carboxamide]
31 | 1 to 10 | O=C(NCc1ccc2ccccc2c1)c1ccc2c(c1)N(Cc1c(F)cccc1Cl)C(=O)CS2 [Example 32, 4-(2-chloro-6-fluorobenzyl)-N-(naphthalen-2-ylmethyl)-3-oxo-3,4-dihydro-2H-benzo[b-1,4]thiazine 6-carboxamide]
